Measured values published in ChEMBL document CHEMBL1129544, “A structure-activity relationship study of novel phenylacetamides which are sodium channel blockers” (J Med Chem, 1996).

Molecular target: Sodium channel protein type 2 subunit alpha (Rattus norvegicus, UniProt P04775)
Test: Inhibitory activity against type IIA sodium channel in CNaIIA-1 cell line expressed in CHO cells
Assay type: cell-based

Chain of Sodium channel protein type 2 subunit alpha (P04775 whole entry): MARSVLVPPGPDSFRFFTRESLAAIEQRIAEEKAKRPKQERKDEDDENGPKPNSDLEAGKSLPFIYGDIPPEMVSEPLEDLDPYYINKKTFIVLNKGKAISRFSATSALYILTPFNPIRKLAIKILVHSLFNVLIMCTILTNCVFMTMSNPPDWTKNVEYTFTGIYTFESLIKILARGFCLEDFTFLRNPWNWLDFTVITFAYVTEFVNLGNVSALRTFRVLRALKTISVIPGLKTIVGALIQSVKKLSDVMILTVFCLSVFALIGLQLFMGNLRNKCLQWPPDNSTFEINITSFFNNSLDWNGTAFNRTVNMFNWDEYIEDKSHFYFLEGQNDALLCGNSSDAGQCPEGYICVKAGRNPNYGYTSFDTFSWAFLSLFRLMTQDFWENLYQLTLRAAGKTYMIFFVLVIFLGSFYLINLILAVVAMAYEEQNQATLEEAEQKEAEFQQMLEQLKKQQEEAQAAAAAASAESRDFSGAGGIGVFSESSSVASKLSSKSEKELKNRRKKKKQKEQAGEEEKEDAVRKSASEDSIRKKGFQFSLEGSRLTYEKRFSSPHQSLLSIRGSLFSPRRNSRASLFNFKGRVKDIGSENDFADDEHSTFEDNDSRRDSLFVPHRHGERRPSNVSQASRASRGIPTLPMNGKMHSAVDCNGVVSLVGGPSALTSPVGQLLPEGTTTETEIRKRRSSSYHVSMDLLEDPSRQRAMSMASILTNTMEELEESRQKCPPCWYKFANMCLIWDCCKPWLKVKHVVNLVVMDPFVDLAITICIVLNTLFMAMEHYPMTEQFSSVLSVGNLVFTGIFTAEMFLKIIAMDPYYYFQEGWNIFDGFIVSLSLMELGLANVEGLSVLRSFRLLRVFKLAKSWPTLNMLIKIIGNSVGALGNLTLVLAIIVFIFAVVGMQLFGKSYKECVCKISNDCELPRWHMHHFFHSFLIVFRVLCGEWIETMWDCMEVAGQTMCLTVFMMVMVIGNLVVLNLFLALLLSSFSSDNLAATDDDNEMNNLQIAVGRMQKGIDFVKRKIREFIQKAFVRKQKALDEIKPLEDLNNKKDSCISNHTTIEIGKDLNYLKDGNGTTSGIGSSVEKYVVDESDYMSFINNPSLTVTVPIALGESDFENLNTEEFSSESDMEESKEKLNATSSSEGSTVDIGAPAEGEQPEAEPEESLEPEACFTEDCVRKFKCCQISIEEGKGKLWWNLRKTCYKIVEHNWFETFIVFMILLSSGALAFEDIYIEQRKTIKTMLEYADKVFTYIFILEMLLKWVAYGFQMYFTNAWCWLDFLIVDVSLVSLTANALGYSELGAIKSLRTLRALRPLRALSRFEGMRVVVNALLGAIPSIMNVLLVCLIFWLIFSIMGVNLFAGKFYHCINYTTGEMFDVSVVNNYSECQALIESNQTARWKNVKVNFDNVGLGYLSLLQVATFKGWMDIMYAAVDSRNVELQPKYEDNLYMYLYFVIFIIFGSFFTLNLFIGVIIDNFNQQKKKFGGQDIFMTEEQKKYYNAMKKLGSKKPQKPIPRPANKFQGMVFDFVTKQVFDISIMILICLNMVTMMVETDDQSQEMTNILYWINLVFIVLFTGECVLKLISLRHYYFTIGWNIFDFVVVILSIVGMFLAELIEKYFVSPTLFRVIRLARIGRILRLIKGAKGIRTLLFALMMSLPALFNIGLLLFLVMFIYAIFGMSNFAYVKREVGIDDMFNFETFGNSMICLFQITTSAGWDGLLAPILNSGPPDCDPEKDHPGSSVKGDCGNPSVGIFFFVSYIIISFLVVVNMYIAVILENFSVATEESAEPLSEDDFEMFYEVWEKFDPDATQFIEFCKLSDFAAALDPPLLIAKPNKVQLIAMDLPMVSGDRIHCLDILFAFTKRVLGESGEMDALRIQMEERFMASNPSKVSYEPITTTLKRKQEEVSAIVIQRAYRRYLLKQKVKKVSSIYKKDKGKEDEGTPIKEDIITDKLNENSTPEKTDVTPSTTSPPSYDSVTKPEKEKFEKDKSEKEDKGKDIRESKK

Compound	IC50
CN(C)CCCNC(=O)C(c1ccccc1)c1ccccc1	20 µM
O=C(NCCCN1CCC(Cc2ccccc2)CC1)C(c1ccccc1)c1ccccc1	0.6 µM
O=C(NCCCN1CCN(Cc2ccccc2)CC1)C(c1ccccc1)c1ccccc1	0.7 µM
NCCCNC(=O)C(c1ccccc1)c1ccccc1	40 µM
O=C(NCCCN1CCCCC1)C(c1ccccc1)c1ccccc1	5.3 µM
CN1CCN(CCCNC(=O)C(c2ccccc2)c2ccccc2)CC1	> 200 µM
CC1CN(CCCNC(=O)C(c2ccccc2)c2ccccc2)CC(C)O1 (stereo not drawn)	2.7 µM
CC1CCC(C)N1CCCNC(=O)C(c1ccccc1)c1ccccc1 (stereo not drawn)	4.6 µM
O=c1[nH]c2ccccc2n1C1CCN(CCCC(c2ccc(F)cc2)c2ccc(F)cc2)CC1 [PIMOZIDE]	0.34 µM
O=C(NCCCN1CCC(n2c(=O)[nH]c3ccccc32)CC1)C(c1ccccc1)c1ccccc1	0.72 µM
COc1ccccc1N1CCN(CCCNC(=O)C(c2ccccc2)c2ccccc2)CC1	1.2 µM
O=C(NC1CN2CCC1CC2)C(c1ccccc1)c1ccccc1 (stereo not drawn)	95 µM
O=C(NCCCN1CCOCC1)C(c1ccccc1)c1ccccc1	6.5 µM
O=C(NCCN1CCCCC1)C(c1ccccc1)c1ccccc1	7.2 µM
CN(C)CCCN(C)C(=O)C(c1ccccc1)c1ccccc1	> 200 µM
CN1CCCC1CCNC(=O)C(c1ccccc1)c1ccccc1 (stereo not drawn)	32 µM
O=C(NCCCN1CCC(Oc2ccccc2)CC1)C(c1ccccc1)c1ccccc1	1.4 µM
CCN(CC)CCCNC(=O)C(c1ccccc1)c1ccccc1	4.4 µM
O=C(NCCCN1CCC(O)(c2ccccc2)CC1)C(c1ccccc1)c1ccccc1	2.2 µM
O=C(NCCCCN1CCCCC1)C(c1ccccc1)c1ccccc1	10 µM
O=C(NCCCN1CCC(c2ccccc2)CC1)C(c1ccccc1)c1ccccc1	1.1 µM
CC(CNC(=O)C(c1ccccc1)c1ccccc1)CN1CCC(c2ccccc2)CC1 (stereo not drawn)	1.5 µM
CN(CCCNC(=O)C(c1ccccc1)c1ccccc1)Cc1ccccc1	1.2 µM
